Laboratory results from patent US20240425464A1, “Substituted Monohydrazides as Potent Antifungal Agents” (University of Kentucky Research Foundation, priority 2023, published 2024).
In brackets after ≈: the same amount, converted by molar mass. Where two headings read alike, the source gives them in different places.

Experiments:
Assay in all cases: MIC determination by in vitro antifungal assay
Assay type in all cases: cell-based
[1] = tested on: Candida parapsilosis ATCC 22019 (J)
Experimental: (§1) 10 mg/mL stock solutions of compounds 1a-9j were prepared in dimethyl sulfoxide (DMSO) and were stored at −20° C. in the dark. The antifungal agent amphotericin B (AmB) was purchased from VWR (Radnor PA, USA). AmB was dissolved in DMSO at a final concentration of 5 mg/mL and was stored at −20° C., protected from light. Candida albicans American Type Culture Collection (ATCC) 10231 (strain A), C. albicans ATCC 64124 (B), and C. albicans ATCC MYA-2876 (C) were obtained from Utah State University. C. albicans ATCC 90819 (D), C. albicans ATCC MYA-2310 (E), C. albicans ATCC MYA-1237 (F), C. albicans ATCC MYA-1003 (G), Candida glabrata ATCC 2001 (H), Candida krusei ATCC 6258 (I), Candida parapsilosis ATCC 22019 (J), Cryptococcus neoformans ATCC MYA-895 (M), Aspergillus terreus ATCC MYA-3633 (N), and Aspergillus flavus ATCC MYA-3631 (0) were obtained from the American Type Culture Collection (ATCC; Manassas, VA, USA). Aspergillus nidulans ATCC 38163 (P) was obtained from University of Kentucky. Clinically derived Aspergillus fumigatus NRRL 163 (Q), A. fumigatus NRRL 5109 (R), and A. fumigatus NRRL 6113 (S) were obtained from Northern Regional Research Laboratory (NRRL). Candida auris 384 (K), C. auris 390 (L), and fungal strains 381-400 (including 10 C. auris (AR Bank #381-390), 3 Candida duobushaemulonii (AR Bank #391, AR Bank #392, and AR Bank #394), 2 Candida haemulonii (AR Bank #393 and AR Bank #395), 1 Kodameae ohmeri (AR Bank #396), 1 C. krusei (AR Bank #397), 1 Candida lusitaniae (AR Bank #398), and 2 Saccharomyces cerevisiae strains (AR Bank #399 and AR Bank #400)) were part of a larger fungal library from the AR Bank maintained by the Centers for Disease Control and Prevention (CDC; Atlanta, GA, USA). Filamentous fungi and yeasts were cultivated at 35° C. in RPMI 1640 medium (with L-glutamine, without sodium bicarbonate, Sigma-Aldrich, St. Louis, MO) buffered to a pH of 7.0 with 0.165 M morpholinepropanesulfonic acid (MOPS) buffer (Sigma-Aldrich). For cytotoxicity assays, HepG2 and the mouse macrophage cell line J774A.1 were obtained from University of Kentucky. The human embryonic kidney cell line, HEK-293, was bought from the ATCC. Mammalian cells were grown in Dulbecco's Modified Eagle's Medium (DMEM) (from VWR) with 10% fetal bovine serum (FBS) (from VWR) and 1% Pen/Strep (from ATCC). Cell lines were cultured at 37° C. with 5% CO2 and passaged by trypsinization with 0.05% trypsin: 0.53 mM EDTA (from Sigma-Aldrich).
(§2) The MIC values of compounds 1a-9j against yeast cells (strains A-P and 381-400) were determined in 96-well plates as described in the CLSI documents M27-A3 and M38-A2 with minor modifications.^2 A single colony of freshly prepared yeast cells was used to inoculate 5 mL of yeast extract peptone dextrose (YPD) broth prior to incubation overnight with shaking at 200 rpm at 35° C. From the actively growing yeast culture, 100 µL were then transferred to 900 μL of RPMI 1640 medium and re-adjusted to achieve OD600 of 0.12 (˜1×10^6 CFU/mL). The cell suspension was further diluted to achieve 1:100 in RPMI 1640 medium. 100 μL of cells were added to the wells of a 96-well microtiter plates that contained 100 µL of the compound solution to obtain concentrations of 0.06-31.3 μg/mL of compounds 1a-9j or AmB prior to incubation for 48 h at 35° C. […]

[2] = tested on: Candida krusei ATCC 6258 (I)
Experimental: as §1, §2

[3] = tested on: Candida glabrata ATCC 2001 (H); conditions: ATCC 2001 in text
Experimental: as §1, §2

[4] = tested on: Aspergillus flavus ATCC MYA-3631 (O); conditions: strain O = A. flavus ATCC MYA-3631
Experimental: as §1
(§3) The MIC values of compounds 1a-9j against yeast cells (strains A-P and 381-400) were determined in 96-well plates as described in the CLSI documents M27-A3 and M38-A2 with minor modifications.^2 A single colony of freshly prepared yeast cells was used to inoculate 5 mL of yeast extract peptone dextrose (YPD) broth prior to incubation overnight with shaking at 200 rpm at 35° C. From the actively growing yeast culture, 100 µL were then transferred to 900 μL of RPMI 1640 medium and re-adjusted to achieve OD600 of 0.12 (˜1×10^6 CFU/mL). The cell suspension was further diluted to achieve 1:100 in RPMI 1640 medium. 100 μL of cells were added to the wells of a 96-well microtiter plates that contained 100 µL of the compound solution to obtain concentrations of 0.06-31.3 μg/mL of compounds 1a-9j or AmB prior to incubation for 48 h at 35° C.
(§4) Finally, the activity of these monohydrazides was explored against […] non-Candida strains: Cryptococcus neoformans ATCC MYA-895 (M), Aspergillus terreus ATCC MYA-3633 (N), Aspergillus flavus ATCC MYA-3631 (O), Aspergillus nidulans ATCC 38163 (P), Aspergillus fumigatus NRRL 163 (Q), A. fumigatus NRRL 5109 (R), and A. fumigatus NRRL 6113 (S) (Tables 1A and 1B). The double dilution method was used with concentrations ranging from 0.06 to 31.3 j·tg mL^−1 for monohydrazides 1a-9j, and the commercially available positive antifungal control amphotericin B (AmB).

[5] = tested on: Cryptococcus neoformans ATCC MYA-895 (M); conditions: strain M = C. neoformans ATCC MYA-895
Experimental: as §1, §3, §4

[6] = tested on: Aspergillus terreus ATCC MYA-3633 (N); conditions: strain N = A. terreus ATCC MYA-3633
Experimental: as §1, §3, §4

[7] = tested on: Aspergillus nidulans ATCC 38163 (P)
Experimental: as §1, §3, §4

[8] = strain J = C. parapsilosis ATCC 22019
[9] = strain H = C. glabrata ATCC 2004 (footnote)
[10] = strain P = A. nidulans ATCC 38163
[11] = Lodderomyces parapsilosis, ATCC22019, strain J = C. parapsilosis ATCC 22019, read-out: MIC
[12] = Pichia kudriavzevii, ATCC6258, strain I = C. krusei ATCC 6258, read-out: MIC
[13] = Nakaseomyces glabratus, ATCC 2001 / ATCC 2004, strain H = C. glabrata ATCC 2004 (footnote), read-out: MIC
[14] = Aspergillus flavus, read-out: MIC
[15] = Cryptococcus neoformans, read-out: MIC
[16] = Aspergillus terreus, read-out: MIC
[17] = Aspergillus nidulans, ATCC38163, strain P = A. nidulans ATCC 38163, read-out: MIC

SMILES | MIC [1, 8] | MIC ([2]; strain I = C. krusei ATCC 6258) | MIC [3, 9] | MIC [4] | MIC [5] | MIC [6] | MIC [7, 10] | MIC [1, 11] | MIC [2, 12] | MIC [3, 13] | MIC [4, 14] | MIC [5, 15] | MIC [6, 16] | MIC [7, 17]
O=C(NNc1cccc(Cl)c1)c1ccccn1 [Compound 2b] | 1.95 μg/mL^−1 | 0.49 μg/mL^−1 | 1.95 μg/mL^−1 | >31.3 μg/mL^−1 | 0.12 μg/mL^−1 | 0.98 μg/mL^−1 | 0.24 μg/mL^−1 | – | – | – | – | – | – | –
COc1cccc(NNC(=O)c2ccccn2)c1 [Compound 2c] | 3.9 μg/mL^−1 | 0.49 μg/mL^−1 | 13.6 μg/mL^−1 | >31.3 μg/mL^−1 | 0.24 μg/mL^−1 | 3.9 μg/mL^−1 | 1.95 μg/mL^−1 | – | – | – | – | – | – | –
O=C(NNc1ccc(F)cc1)c1ccccn1 [Compound 2d] | – | – | – | – | – | – | – | 1.95 µg/mL (≈ 8.43 µM) | 0.12 µg/mL (≈ 0.519 µM) | 1.95 µg/mL (≈ 8.43 µM) | 31.3 µg/mL (≈ 135 µM) | 0.24 µg/mL (≈ 1.04 µM) | 1.95 µg/mL (≈ 8.43 µM) | 0.49 µg/mL (≈ 2.12 µM)
O=C(NNc1ccc(Cl)cc1)c1ccccn1 [Compound 2e] | 3.9 μg/mL^−1 | 1.95 μg/mL^−1 | 1.95 μg/mL^−1 | 31.3 μg/mL^−1 | 0.49 μg/mL^−1 | 3.9 μg/mL^−1 | 0.49 μg/mL^−1 | – | – | – | – | – | – | –
COc1ccc(NNC(=O)c2ccccn2)cc1 [Compound 2f] | – | – | – | – | – | – | – | 3.9 µg/mL (≈ 16 µM) | 0.49 µg/mL (≈ 2.01 µM) | 0.98 µg/mL (≈ 4.03 µM) | > 31.3 µg/mL | 0.49 µg/mL (≈ 2.01 µM) | 31.3 µg/mL (≈ 129 µM) | 0.49 µg/mL (≈ 2.01 µM)
O=C(NNc1ccc(F)cc1F)c1ccccn1 [Compound 2g] | – | – | – | – | – | – | – | 1.95 µg/mL (≈ 7.82 µM) | 0.49 µg/mL (≈ 1.97 µM) | 0.98 µg/mL (≈ 3.93 µM) | 15.6 µg/mL (≈ 62.6 µM) | 0.24 µg/mL (≈ 0.963 µM) | 0.98 µg/mL (≈ 3.93 µM) | 0.49 µg/mL (≈ 1.97 µM)
O=C(NNc1cc(F)ccc1F)c1ccccn1 [Compound 2h] | – | – | – | – | – | – | – | 3.9 µg/mL (≈ 15.6 µM) | 0.24 µg/mL (≈ 0.963 µM) | 3.9 µg/mL (≈ 15.6 µM) | 3.9 µg/mL (≈ 15.6 µM) | 0.49 µg/mL (≈ 1.97 µM) | 0.98 µg/mL (≈ 3.93 µM) | 0.49 µg/mL (≈ 1.97 µM)
O=C(NNc1cc(F)cc(F)c1)c1ccccn1 [Compound 2i] | – | – | – | – | – | – | – | 1.95 µg/mL (≈ 7.82 µM) | 0.24 µg/mL (≈ 0.963 µM) | 7.8 µg/mL (≈ 31.3 µM) | 1.95 µg/mL (≈ 7.82 µM) | 0.24 µg/mL (≈ 0.963 µM) | 0.98 µg/mL (≈ 3.93 µM) | 0.49 µg/mL (≈ 1.97 µM)
O=C(NNc1cc(Cl)cc(Cl)c1)c1ccccn1 [Compound 2j] | – | – | – | – | – | – | – | 1.95 µg/mL (≈ 6.91 µM) | 0.98 µg/mL (≈ 3.47 µM) | 7.8 µg/mL (≈ 27.6 µM) | > 31.3 µg/mL | 0.49 µg/mL (≈ 1.74 µM) | 1.95 µg/mL (≈ 6.91 µM) | 0.49 µg/mL (≈ 1.74 µM)
O=C(NNc1cccc(F)c1)c1ccc(F)cn1 [Compound 3a] | 1.95 μg/mL^−1 | 0.24 μg/mL^−1 | 31.3 μg/mL^−1 | 7.8 μg/mL^−1 | ≤0.06 μg/mL^−1 | 1.95 μg/mL^−1 | 0.98 μg/mL^−1 | – | – | – | – | – | – | –
O=C(NNc1ccc(F)cc1)c1ccc(F)cn1 [Compound 3d] | 3.9 μg/mL^−1 | 0.49 μg/mL^−1 | 15.6 μg/mL^−1 | 15.6 μg/mL^−1 | 0.98 μg/mL^−1 | 3.9 μg/mL^−1 | 0.98 μg/mL^−1 | – | – | – | – | – | – | –
O=C(NNc1ccc(Cl)cc1)c1ccc(F)cn1 [Compound 3e] | 31.3 μg/mL^−1 | 0.98 μg/mL^−1 | 7.8 μg/mL^−1 | >31.3 μg/mL^−1 | 3.9 μg/mL^−1 | >31.3 μg/mL^−1 | 15.6 μg/mL^−1 | – | – | – | – | – | – | –
COc1ccc(NNC(=O)c2ccc(F)cn2)cc1 [Compound 3f] | 3.9 μg/mL^−1 | 0.24 μg/mL^−1 | 1.95 μg/mL^−1 | >31.3 μg/mL^−1 | ≤0.06 μg/mL^−1 | 31.3 μg/mL^−1 | 1.95 μg/mL^−1 | – | – | – | – | – | – | –
O=C(NNc1ccc(F)cc1F)c1ccc(F)cn1 [Compound 3g] | – | – | – | – | – | – | – | 31.3 µg/mL (≈ 117 µM) | 0.98 µg/mL (≈ 3.67 µM) | 31.3 µg/mL (≈ 117 µM) | 15.6 µg/mL (≈ 58.4 µM) | 0.98 µg/mL (≈ 3.67 µM) | 3.9 µg/mL (≈ 14.6 µM) | 0.98 µg/mL (≈ 3.67 µM)
